According to US7557573B2, “NMR-based methods for detecting ligands, where the ligand or target are hyperpolarized and the NMR-spectrum is compared with a reference spectrum of the ligand or target” (GE Healthcare AS, priority 2002, dated 2009):

Key:
[1] = test system: Urease; test: Hyperpolarised 13C-urea NMR assay of enzymatic conversion and its inhibition; conditions: 10, 12 and 14 units urease, substrate concentration constant
Protocol: The frozen sample was hyperpolarised for one hour (DNP method). The sample was dissolved in a phosphate buffer (10 mM, pH 7.6, 100° C., 8.5 ml (active dissolution volume 3 ml)) and 500 μl were transferred to a 10 mm NMR tube containing 2.5 ml of a solution (same buffer as for urea) containing 12 units urease (0.1 mg). A series of 40 one-dimensional ^13C spectra were collected as one every 3 s, with a reduced flip angle (15°).
It is possible to calibrate the flip angle, and the relaxation rate for urea is known. […] Another way of calculating the reaction rate for the system is to vary the enzyme concentration while keeping the concentration of substrate constant.
The latter approach was used in a series of experiments that were performed as described above, only the concentration of urease was varied. Three experiments were performed with 10 units, 12 units and 14 units urease. The urease activity was plotted as a function of concentration. From this plot, the reaction rate constant was extracted directly. The NMR signal intensities of urea in the individual experiments have been used to calculate the enzymatic activity.

[2] = test system: Src homology domain 2 from growth binding hormone; test: Hyperpolarised (DNP) 13C-NMR binding assay, ligand free vs bound signals; conditions: target to ligand ratio 4:1, ligand 24 μM, 25° C., single scan
Protocol: The sample was placed in the polariser and hyperpolarised overnight (17 h) at 93.934 GHz and 100 mW (DNP method). The sample was brought into solution with phosphate buffer (pH 6.5, 100 mM, 60° C., 8.5 ml). The active dissolution volume was 3 ml with 90% recovery of substance, providing a final concentration of 5.7 μM. […] A liquid state NMR spectrum was acquired in one scan with a 90° pulse angle and acquisition time of 1 s. One NMR signal was obtained at 176.9 ppm from the ^13C-labeled ligand. The signal-to-noise ratio (SNR) of the spectrum was 50.
940 μl of the target solution (100 μM target, 5 mM DTT, 100 mM NaCl, 50 mM phosphate pH 6.5) was placed in 10 mm NMR tube with a bottom plug, reducing the active volume to […]. The tube was placed in a 9.4 T magnet with the temperature of the probe equilibrated to 25° C. A tube was connected to the bottom of the NMR tube to allow for injection of the ligand solution into the target solution.
The sample was placed in the polariser and hyperpolarised overnight (17 h) at 93.934 GHz and 100 mW (DNP method). […]
In this example, the target to ligand concentration ratio was 4:1. […] By varying the ligand to target concentration in the assay it would thus be possible to measure the binding affinity by quantifying the relative amounts of free and bound ligand visible in the spectra based on the knowledge of ligand/target concentrations used in the assay.

[3] = test system: Src homology domain 2 from growth binding hormone; conditions: cited from earlier work

| Compound | rate constant for the system (enzymatic conversion of urea) [1] [s⁻¹] | NMR signals of hyperpolarised ligand in mixture with target (free/bound) [2] | exchange regime of ligand with the target [3] |
| --- | --- | --- | --- |
| NC(N)=O [urea] | 0.0019 | – | – |
| (1-^13C)—Ac—EpYINQ—NH2 | – | two signals, one from the unbound ligand (176.94 ppm) and one from the bound ligand (176.2 ppm) | slow exchange with the target |
